Data published in patent US4725683A, “Fluorophenoxyphenoxypropionates and derivatives thereof” (The Dow Chemical Company, priority 1985, dated 1988).

Experiments:
Assay type in all cases: in vivo
[1] = tested on: Wheat; assay: Postemergent activity; conditions: Triticum aestivum, post-emergence, 336 h, read-out: % Control
In short: (§1)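 Pots of plants about 10 cm tall sprayed to run-off at 125, 62.5, 31.25, 15.6, 7.8 and 3.9 ppm. Spray: active in acetone mixed with an equal volume of water containing 0.1% TWEEN 200. Growth scored two weeks later on a 0–100 scale (0 no effect, 100 complete kill).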

[2] = tested on: Wild Oats; assay: Postemergent activity; conditions: Avena fatua, post-emergence, 336 h
In short: as §1

[3] = tested on: Barley; assay: Postemergent activity
Protocol: (§2) Representative compositions of the present invention were evaluated for the postemergence control of species of plants listed in Table A. In these evaluations, pots of the plant species listed in Table A, grown to a height of about 10 cms, were used. […] The spray compositions were made by mixing the active ingredient in acetone to 1/2 the final volume, i.e., twice the final concentration. An equal amount of water was added to the active ingredient/acetone mixture wherein the water contained 0.1 percent by weight of TWEEN® 200 surfactant. The application to the plants was made to the point of run-off and was carried out with conventional spraying equipment. […] Thereafter, the pots were maintained under conditions conducive for plant growth.

[4] = tested on: Blackgrass; assay: Postemergent activity
Protocol: as §2

[5] = tested on: Cheatgrass; assay: Postemergent activity
Protocol: as §2

[6] = tested on: Green Foxtail; assay: Postemergent activity
Protocol: as §2

[7] = tested on: Yellow Foxtail; assay: Postemergent activity
Protocol: as §2

[8] = tested on: Fall Panicum; assay: Selective postemergence, track sprayer
Protocol: (§3) Representative compositions of the present invention were evaluated for the postemergence control of species of plants listed in Table A. In these evaluations, pots of the plant species listed in Table A, grown to a height of about 10 cms, were used. Aqueous spray compositions, containing various amounts of 2-[4-(2-fluoro-4-trifluoromethylphenoxy)-phenoxy]propionic acid methy ester, i.e., 125 ppm, 62.5 ppm, 31.25 ppm, 15.6 ppm, 7.8 ppm and 3.9 ppm, respectively, were applied to separate pots. The spray compositions were made by mixing the active ingredient in acetone to 1/2 the final volume, i.e., twice the final concentration. An equal amount of water was added to the active ingredient/acetone mixture wherein the water contained 0.1 percent by weight of TWEEN® 200 surfactant. The application to the plants was made to the point of run-off and was carried out with conventional spraying equipment. Other pots were sprayed with similar compositions containing no toxicant to serve as controls. Thereafter, the pots were maintained under conditions conducive for plant growth. Two weeks after treatment, the pots were examined for plant growth and evaluated on a scale of 0 to 100 where 0 represents no effect and 100 represents complete kill. The results of the examination of the treated pots are set forth below in Table A.
(§4) To further define the selective postemergence herbicidal characteristics of compounds of the present invention, chemicals were applied to additional species of grasses as listed in Table F. Chemicals evaluated were 2-[4-(4-bromo-2-fluorophenoxy)phenoxy]propionic acid methyl ester and its R isomer. Treatment conditions were similar to those described in Example A except that chemicals were delivered through a track sprayer set to deliver the appropriate dosages in 280.6 L/hectare of water containing 0.1% Tween-20 surfactant.

[9] = tested on: Green Foxtail; assay: Selective postemergence, track sprayer
Protocol: as §3, §4

[10] = tested on: Tall Fescue; assay: Selective postemergence, track sprayer
Protocol: as §3, §4

[11] = tested on: Wheat; assay: Selective postemergence, track sprayer
Protocol: as §3, §4

COC(=O)C(C)Oc1ccc(Oc2ccc(Br)cc2F)cc1 (racemic) [Example 4-Bromo-, 2-[4-(4-bromo-2-fluorophenoxy)phenoxy]propionic acid methyl ester]
plant injury at 3.9 ppm ([1]; 3.9 ppm): 0% | plant injury at 7.8 ppm ([1]; 7.8 ppm): 0% | plant injury at 15.6 ppm ([1]; 15.6 ppm): 0% | plant injury at 31.25 ppm ([1]; 31.25 ppm): 0% | plant injury at 62.5 ppm ([1]; 62.5 ppm): 0% | plant injury at 125 ppm ([1]; 125 ppm): 0% | plant injury at 250 ppm ([1]; 250 ppm): 0% | plant injury at 500 ppm ([1]; 500 ppm): 0% | pest or weed control at 3.9 ppm ([2]; 3.9 ppm): 70% | pest or weed control at 7.8 ppm ([2]; 7.8 ppm, read-out: % Control): 80% | pest or weed control at 15.6 ppm ([2]; 15.6 ppm, read-out: % Control): 100% | pest or weed control at 31.25 ppm ([2]; 31.25 ppm, read-out: % Control): 100% | pest or weed control at 62.5 ppm ([2]; 62.5 ppm, read-out: % Control): 100% | pest or weed control at 125 ppm ([2]; 125 ppm, read-out: % Control): 95% | pest or weed control at 250 ppm ([2]; 250 ppm, read-out: % Control): 100% | pest or weed control at 500 ppm ([2]; 500 ppm, read-out: % Control): 100% | % Control ([3]; 3.9 ppm): 0% | % Control ([3]; 7.8 ppm): 0% | % Control ([3]; 15.6 ppm): 0% | % Control ([3]; 31.25 ppm): 0% | % Control ([3]; 62.5 ppm): 10% | % Control ([3]; 125 ppm): 10% | % Control ([3]; 250 ppm): 10% | % Control ([3]; 500 ppm): 30% | % Control ([4]; 0.2 ppm): 0% | % Control ([4]; 0.4 ppm): 10% | % Control ([4]; 0.8 ppm): 30% | % Control ([4]; 1.5 ppm): 50% | % Control ([4]; 3.1 ppm): 70% | % Control ([4]; 6.25 ppm): 99% | % Control ([4]; 12.5 ppm): 100% | % Control ([4]; 25 ppm): 100% | % Control ([5]; 0.2 ppm): 0% | % Control ([5]; 0.4 ppm): 0% | % Control ([5]; 0.8 ppm): 0% | % Control ([5]; 1.5 ppm): 0% | % Control ([5]; 3.1 ppm): 0% | % Control ([5]; 6.25 ppm): 0% | % Control ([5]; 12.5 ppm): 0% | % Control ([5]; 25 ppm): 0% | % Control ([6]; 0.2 ppm): 20% | % Control ([6]; 0.4 ppm): 90% | % Control ([6]; 0.8 ppm): 90% | % Control ([6]; 1.5 ppm): 100% | % Control ([6]; 3.1 ppm): 100% | % Control ([6]; 6.25 ppm): 100% | % Control ([6]; 12.5 ppm): 100% | % Control ([6]; 25 ppm): 100% | % Control ([7]; 0.2 ppm): 0% | % Control ([7]; 0.4 ppm): 0% | % Control ([7]; 0.8 ppm): 20% | % Control ([7]; 1.5 ppm): 50% | % Control ([7]; 3.1 ppm): 80% | % Control ([7]; 6.25 ppm): 100% | % Control ([7]; 12.5 ppm): 100% | % Control ([7]; 25 ppm): 100% | Percent Control ([8]; 0.0011 kgs/hectare): 0% | Percent Control ([8]; 0.0023 kgs/hectare): 20% | Percent Control ([8]; 0.0045 kgs/hectare): 50% | Percent Control ([8]; 0.009 kgs/hectare): 80% | Percent Control ([8]; 0.035 kgs/hectare): 100% | Percent Control ([8]; 0.14 kgs/hectare): 100% | Percent Control ([8]; 0.28 kgs/hectare): 100% | Percent Control ([8]; 0.56 kgs/hectare): 100% | Percent Control ([9]; 0.0011 kgs/hectare): 0% | Percent Control ([9]; 0.0023 kgs/hectare): 20% | Percent Control ([9]; 0.0045 kgs/hectare): 90% | Percent Control ([9]; 0.009 kgs/hectare): 90% | Percent Control ([9]; 0.035 kgs/hectare): 100% | Percent Control ([9]; 0.07 kgs/hectare): 100% | Percent Control ([9]; 0.14 kgs/hectare): 100% | Percent Control ([9]; 0.28 kgs/hectare): 100% | Percent Control ([9]; 0.56 kgs/hectare): 100% | Percent Control ([10]; 0.0011 kgs/hectare): 0% | Percent Control ([10]; 0.0023 kgs/hectare): 10% | Percent Control ([10]; 0.0045 kgs/hectare): 20% | Percent Control ([10]; 0.009 kgs/hectare): 20% | Percent Control ([10]; 0.035 kgs/hectare): 60% | Percent Control ([10]; 0.14 kgs/hectare): 90% | Percent Control ([10]; 0.28 kgs/hectare): 95% | Percent Control ([10]; 0.56 kgs/hectare): 95% | Percent Control ([11]; 0.0011 kgs/hectare): 0% | Percent Control ([11]; 0.0023 kgs/hectare): 0% | Percent Control ([11]; 0.0045 kgs/hectare): 0% | Percent Control ([11]; 0.009 kgs/hectare): 0% | Percent Control ([11]; 0.018 kgs/hectare): 0% | Percent Control ([11]; 0.035 kgs/hectare): 0% | Percent Control ([11]; 0.07 kgs/hectare): 0% | Percent Control ([11]; 0.14 kgs/hectare): 10% | Percent Control ([11]; 0.28 kgs/hectare): 40% | Percent Control ([11]; 0.56 kgs/hectare): 50%
